From patent US20240024294A1, “COMPOSITIONS AND METHODS FOR THE TREATMENT OR PREVENTION OF PRETERM LABOR” (XOMA (US) LLC, priority 2020, published 2024)
Blank lines part the entries; values can stand above or below the compound they belong to.

Assays:
human PGF2α receptor = human PGF2α receptor (Homo sapiens, UniProt P43088); details: competitive radioligand binding, U.S. Pat. No. 8,415,480, read-out: inhibition constant (Ki); cited from earlier work
[1] = crystal form stability and hygroscopicity; assay type: physicochemical
Text: For example, this compound is readily crystallized using a several distinct experimental procedures. Compound 3 assumes a single, reproducible crystal form upon crystallization from a variety of media and under different ambient conditions. […] For instance, impurities associated with atmospheric water are not readily integrated into the crystalline form of compound 3.

[2] = Phase II clinical trial Part A: plasma pharmacokinetics; assay type: in vivo, human
Description: (§1) Subjects participating in Part A of the study were diagnosed with preterm labor and were already receiving an atosiban infusion for 48 hours. Compound (2) was administered orally to each subject in an amount of 500 mg twice daily for 7 days, with a loading dose of 1,000 mg on Day 1.
(§2) In Part A of the study, fetal cardiac safety was monitored using Doppler ultrasound, and compound (2) pharmacokinetics were assessed on days 1, 2, 3 and 7 of the study. Amniotic Fluid Index was monitored from days 1 to 14. Time to delivery was also assessed.

[3] = relative to compound 1; cited from earlier work
[4] = tested on: pregnant women with threatened spontaneous preterm labor; experiment: Phase II clinical trial Part B: adverse events; assay type: in vivo, human; details: patients undergoing atosiban infusion
Description: (§3) A total of n=58 patients were treated with compound (2) and atosiban, and n=55 patients were treated with placebo and atosiban. As in part A, patients underwent a 48-hour infusion with atosiban. On the first day of atosiban treatment, patients were administered either placebo or compound (2) in a loading dose of 1,000 mg. On subsequent days, patients were then administered either placebo or compound (2) twice daily in an amount of 500 mg per dose until delivery.
All participants received intravenous atosiban as standard-of-care therapy according to the approved product label for 48 hours. […]
Safety was assessed by way of the following outcomes: • maternal incidence of adverse events (AEs), treatment-emergent adverse events (TEAEs), clinically significant changes in laboratory safety tests, and vital signs from Day 1 until 28 days after birth; • incidence of AEs indicating fetal distress, such as growth retardation and/or changes in fetal heart rate monitoring and/or amniotic fluid index (AFI) or amniotic fluid volume (in twins); and incidence of neonates experiencing adverse events, as well as clinically significant changes in vital signs, Apgar score, weight and head circumference at birth, and a measure of neonatal morbidity from birth until 28 days after birth.

[5] = tested on: pregnant women with threatened spontaneous preterm labor; experiment: Phase II clinical trial Part A: time to delivery; assay type: in vivo, human
Description: This example reports results of a Phase II clinical trial of compound (2) in pregnant women with threatened spontaneous preterm labor. In part A of the study, compound (2) was administered in open-label fashion to n=9 patients with gestational ages of from 28 to 34 weeks in order to assess pharmacokinetics and safety. In part B of the study, compound (2) was administered to a more expansive set of n=58 subjects in order to assess efficacy, as well as to further evaluate safety.
as §1, §2

[6] = tested on: pregnant women with threatened spontaneous preterm labor; experiment: Phase II clinical trial Part B: efficacy to delay preterm birth; assay type: in vivo, human
Description: as §3
Gestational age was confirmed by a first trimester ultrasound scan or by fertilization date. […] Subjects were required to begin treatment with atosiban within 24 hours before starting study treatment.
All participants received intravenous atosiban as standard-of-care therapy according to the approved product label for 48 hours. Treatment with study medication was to be initiated ideally simultaneously or at a maximum within 24 hours after initiating atosiban treatment. The loading dose of compound (2) was 1000 mg, with a maintenance dose of 500 mg twice a day, each 12 hours apart, for 7 days. Women allocated to the control group received the same dosing regimen with placebo. Subjects were instructed to record IMP administration in a patient diary and had to bring both opened and unopened IMP packages to each visit, in order to allow the assessment of compliance with study treatment.
Efficacy to delay preterm birth was assessed using the following outcomes: • delivery within 48 hours from start of treatment medication; • delivery within 7 days from start of treatment medication; • delivery before 37 weeks gestational age; and • time to delivery measured from start of treatment medication.
As this study was a proof-of-concept study, a primary efficacy endpoint was not prospectively defined. Other outcomes included the following: • uterine contractions assessed by electrohysterography, tocodynamometry, or abdominal palpation at each hour during the first 6 hours after start of test treatment; and • maternal plasma concentrations and pharmacokinetics of compound (1) (the active metabolite of compound (2)) and fetal cord blood concentrations at the time of delivery.
Analyses of the incidence of delivery within 2 days (48 h), within 7 days (168 h) post-compound (2) administration start, and before 37 weeks of gestational age was performed using logistic regression with treatment group as the independent variable. Strata effects (gestational age and number of fetuses) were included within the model. The treatment effect was expressed as an adjusted odds ratio with 90% confidence intervals. Treatment by strata interaction terms were explored. Other covariates explored included the pre-dose uterine contraction rate as well as the possibility of a site-to-site effect. Time to delivery measured from start of IMP administration was analyzed using Cox's proportional-hazards model. In addition, a log-rank test was performed. The analysis was performed using SAS® statistical software Version 9.4. P-values <0.10 were considered to indicate statistical significance.

[7] = tested on: pregnant women with threatened spontaneous preterm labor; experiment: Phase II clinical trial Part A: safety (Doppler ultrasound, Amniotic Fluid Index, adverse events); assay type: in vivo, human
Description: as §1, §2

[8] = target: T1, Pept1 transporter protein (Homo sapiens, UniProt P46059); experiment: Pept1 transporter substrate assessment; assay type: in vitro ADME; details: compound 2 and salts thereof
T1 sequence (P46059 1-708): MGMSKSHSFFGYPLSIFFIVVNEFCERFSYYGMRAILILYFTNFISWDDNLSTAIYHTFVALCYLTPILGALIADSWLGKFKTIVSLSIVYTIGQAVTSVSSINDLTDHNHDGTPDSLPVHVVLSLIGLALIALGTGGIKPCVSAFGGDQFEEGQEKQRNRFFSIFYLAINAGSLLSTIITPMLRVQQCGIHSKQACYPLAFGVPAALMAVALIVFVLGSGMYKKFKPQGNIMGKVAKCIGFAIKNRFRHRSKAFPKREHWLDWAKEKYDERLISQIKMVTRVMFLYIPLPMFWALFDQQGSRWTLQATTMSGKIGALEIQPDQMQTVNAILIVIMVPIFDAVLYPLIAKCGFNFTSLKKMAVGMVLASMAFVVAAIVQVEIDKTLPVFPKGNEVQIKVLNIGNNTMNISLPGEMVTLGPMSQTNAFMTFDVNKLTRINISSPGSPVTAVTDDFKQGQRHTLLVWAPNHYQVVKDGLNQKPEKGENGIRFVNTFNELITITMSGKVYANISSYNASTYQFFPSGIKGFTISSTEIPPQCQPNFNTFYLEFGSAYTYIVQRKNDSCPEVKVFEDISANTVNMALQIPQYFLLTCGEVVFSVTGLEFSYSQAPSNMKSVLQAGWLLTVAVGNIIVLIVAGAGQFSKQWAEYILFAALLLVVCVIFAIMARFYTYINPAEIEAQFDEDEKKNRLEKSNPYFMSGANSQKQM
Text: Compound 2 is de-esterified by ambient esterases in the small intestine and subsequently penetrates the small intestinal epithelium passively. […] Pept1 is known to mediate the absorption of a variety of valinate esters, as described, for example, in Vig et al., Adv. Drug Deliv. Rev. 65:1370-1385 (2013). […] Despite the presence the valinate ester functionality, compound 2 and salts thereof are not dependent upon this transporter for absorption across the small intestinal epithelium. […] Rather, compound 2 and salts thereof are converted in vivo to a form that is readily absorbed in a manner independent of energy and local proton gradient. This beneficial property, coupled with the high aqueous solubility of compound I and salts thereof, fosters a pharmacokinetic profile in which compound 2 and salts thereof readily dissolve in an aqueous environment and are in turn converted into a form capable of transported-independent absorption.

Sequence of human PGF2α receptor (P43088 whole entry): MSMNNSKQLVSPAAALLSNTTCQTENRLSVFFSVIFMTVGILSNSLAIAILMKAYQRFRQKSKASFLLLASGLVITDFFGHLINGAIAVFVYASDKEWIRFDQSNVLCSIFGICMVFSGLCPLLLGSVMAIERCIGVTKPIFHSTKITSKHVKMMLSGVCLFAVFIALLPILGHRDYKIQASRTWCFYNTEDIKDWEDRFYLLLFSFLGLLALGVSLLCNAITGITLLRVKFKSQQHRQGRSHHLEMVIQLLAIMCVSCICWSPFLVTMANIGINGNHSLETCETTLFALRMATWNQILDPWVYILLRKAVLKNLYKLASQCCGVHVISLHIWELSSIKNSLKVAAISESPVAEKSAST

SMILES: O=C(N[C@@H](CCO)c1ccc(F)cc1)C1SCCN1S(=O)(=O)c1ccc(-c2ccccc2)cc1 (stereo in doubt) [Compound 1, 3-([1,1′-biphenyl]-4-ylsulfonyl)-N-[1-(4-fluorophenyl)-3-hydroxypropyl]-1,3-thiazolidine-2-carboxamide]
- Ki (human PGF2α receptor): 6 nM

- hygroscopicity [1]: low hygroscopicity
- stability of crystal form ([1]; ambient conditions and elevated relative humidity): extended stability
SMILES: CC(C)[C@H](N)C(=O)OCC[C@H](NC(=O)[C@@H]1SCCN1S(=O)(=O)c1ccc(-c2ccccc2)cc1)c1ccc(F)cc1.Cl [Compound 3, (3S)-3-({[(2S)-3-(biphenyl-4-ylsulfonyl)-1,3-thiazolidin-2-yl]carbonyl}-amino)-3-(4-fluorophenyl)propyl L-valinate hydrochloride]

- plasma concentrations and pharmacokinetic parameters compared with non-pregnant women ([2]; Part A): similar
- day on which steady-state concentrations were achieved ([2]; Part A, 1,000 mg loading dose on Day 1): 1 days
- absorption (plasma concentration vs. time profiles) ([2]; Part A, oral, day 1 to day 7, on atosiban): well absorbed
- plasma concentrations and pharmacokinetic parameters compared with non-pregnant women ([2]; Part A, listed as Compound (2)): comparable
- substrate for the Pept1 transporter protein [8]: not substrates
SMILES: CC(C)[C@H](N)C(=O)OCC[C@H](NC(=O)[C@@H]1SCCN1S(=O)(=O)c1ccc(-c2ccccc2)cc1)c1ccc(F)cc1 [compound (2), (3S)-3-({[(2S)-3-(biphenyl-4-ylsulfonyl)-1,3-thiazolidin-2-yl]carbonyl}-amino)-3-(4-fluorophenyl)propyl L-valinate]
- solubility in water and in FeSSIF and FaSSIF media [3]: improvements
- adverse events compared with placebo [4]: fewer adverse events
- patients that did not deliver within 7 days of administration ([5]; 9 singleton patients, 1,000 mg loading then 500 mg twice daily oral 7 days, on 48 h atosiban infusion): 8 patients
- Mean±SD time to delivery ([5]; 9 singleton patients, oral compound (2) 7 days, on atosiban infusion): 41 ± 23 days
- OR (90% CI), delivery ≤48 h ([6]; all women, atosiban + compound (2) vs atosiban + placebo, adjusted odds ratio): 0.52
- OR (90% CI), delivery ≤7 days ([6]; all women, vs atosiban + placebo): 1.00
- reduction in uterine contractions relative to baseline ([6]; in combination with atosiban, vs atosiban and placebo (FIG. 7)): more sustained reduction
- delivery rate within 7 days ([6]; singleton pregnancy, 24 to 30 weeks GA): 14.3%
- OR (90% CI), delivery ≤7 days ([6]; singletons only, GA 24 to 30 wks at BL, vs atosiban + placebo): 0.53
- OR (90% CI), delivery ≤48 h ([6]; singletons only, vs atosiban + placebo): 0.39
- OR (90% CI), delivery ≤48 h ([6]; twins only, vs atosiban + placebo): 2.05
- adverse events reported for the fetuses [7]: No adverse events
- Amniotic Fluid Index ([7]; days 1 to 14 (FIG. 3)): no clinically significant changes
- Doppler ultrasound findings, effect on the ductus arteriosus ([7]; fetal cardiac safety): no constrictive effect on the ductus arteriosus
- tolerability ([7]; oral administration for 7 days, women receiving atosiban): well tolerated
- ductus arteriosus Pulsatility Index ([7]; over the dosing period (FIG. 2)): did not decrease
